Patent publication US20120083471A1, “Novel Compounds, Pharmaceutical Compositions Containing Same, Methods of Use for Same, and Methods for Preparing Same” (priority 2008, published 2012)
Read-outs that look alike come from different tables or passages of the source.

Legend:
[1] = molecular target: T1, mtGPAT1 (Mus musculus, UniProt Q61586); experiment: In vitro mtGPAT inhibition: acylation of 14C-glycerol 3-phosphate with palmitoyl-CoA, scintillation counting; type: biochemical
T1 construct: from tissue; host or cells: mitochondrial preparation
T1 sequence (Q61586 1-827): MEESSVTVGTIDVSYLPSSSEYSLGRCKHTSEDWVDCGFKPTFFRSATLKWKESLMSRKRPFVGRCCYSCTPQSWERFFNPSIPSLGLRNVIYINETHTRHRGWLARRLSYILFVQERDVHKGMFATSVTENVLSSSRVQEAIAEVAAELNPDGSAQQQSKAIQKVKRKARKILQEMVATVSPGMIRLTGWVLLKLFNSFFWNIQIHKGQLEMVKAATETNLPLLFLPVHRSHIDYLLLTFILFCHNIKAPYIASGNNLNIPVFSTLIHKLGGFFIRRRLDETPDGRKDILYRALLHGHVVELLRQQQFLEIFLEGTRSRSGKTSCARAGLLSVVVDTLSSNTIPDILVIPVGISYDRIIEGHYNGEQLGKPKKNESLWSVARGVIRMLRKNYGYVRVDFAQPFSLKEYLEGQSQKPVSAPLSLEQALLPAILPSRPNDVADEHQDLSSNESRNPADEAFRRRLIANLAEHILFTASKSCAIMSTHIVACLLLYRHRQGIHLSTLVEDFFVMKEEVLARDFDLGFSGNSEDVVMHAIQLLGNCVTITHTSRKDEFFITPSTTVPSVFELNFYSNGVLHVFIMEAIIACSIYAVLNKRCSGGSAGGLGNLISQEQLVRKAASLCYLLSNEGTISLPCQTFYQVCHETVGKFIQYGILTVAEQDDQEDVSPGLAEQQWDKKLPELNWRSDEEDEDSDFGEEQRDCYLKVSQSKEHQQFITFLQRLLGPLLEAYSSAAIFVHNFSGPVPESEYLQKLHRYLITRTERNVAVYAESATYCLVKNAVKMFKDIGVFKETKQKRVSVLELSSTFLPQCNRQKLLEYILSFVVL
Experimental: The compounds produced as described above were evaluated for their ability to inhibit the acylation of glycerol-3-phosphate in vitro. The acylation reaction between ^14C-labelled glycerol-3-phosphate and palmitoyl-CoA, initiated by adding mtGPAT, was measured in the presence of varying concentrations of the inhibitor by scintillation counting as described in more detail below.
A mitochondrial preparation of glycerol 3-phosphate acyltransferase was added to the incubation mixture containing ^14C-labeled glycerol 3-phosphate, palmitoyl-CoA, and varying inhibitor concentrations to initiate the reaction. After ten min, the reaction was terminated by adding chloroform, methanol, and 1% perchloric acid. Five minutes later, more chloroform and perchloric acid were added, and the upper aqueous layer was removed. After washing three times with 1% perchloric acid, the organic layer was evaporated under nitrogen, and the amount of ^14C present was counted to determine the extent of reaction inhibition. Data points were recorded in triplicate, and IC50 values were calculated based on the amount of test inhibitor necessary to produce 50% of mtGPAT activity observed in the absence of inhibitor but in the presence of DMSO vehicle control.

[2] = tested on: FAO; experiment: FAO (SC 150 and Max) entries of the compound data sheets
[3] = Table 3, sulfonamides 21a-c and 24a-f, triplicate, read-out: IC50 (μM) ± SD, In Vitro Anti-mtGPAT1 Activity
[4] = compounds 4a-t and 7a-t, read-out: GPAT IC50
[5] = Table 2, sulfonamides 15a-i and 17a-f, triplicate, read-out: IC50 (μM) ± SD, In Vitro Anti-mtGPAT1 Activity
[6] = Table 1, sulfonamides 5a-f and 13a-f, triplicate, read-out: IC50 (μM) ± SD, In Vitro Anti-mtGPAT1 Activity

SMILES	FAO SC 150 [2]	IC50 [1, 4]	also measured
CCCCCCCCCS(=O)(=O)Nc1ccc(Cl)cc1C(=O)O [Compound 24d, 5-Chloro-2-(nonylsulfonamido)benzoic acid]			IC50 [1, 3]: 11.5 ± 0.7 µM
CCCCCCCCS(=O)(=O)Nc1ccc(-c2cccc(C(C)=O)c2)cc1C(=O)O	FAS (IC50) Not Tested CPT I Stim Not Tested FAO SC 150 Neg SA/MH (MIC) ug/ml	28 µM	
CCCCCCCCS(=O)(=O)Nc1cc(-c2ccc(O)cc2)ccc1C(=O)O		66.1 µM	
O=C(O)c1ccc(NS(=O)(=O)c2ccc(Cl)cc2)cc1 [Compound 15c, 4-(4-Chlorophenylsulfonamido)benzoic acid]			IC50 [1, 5]: 33.7 ± 1.3 µM
O=C(O)c1ccc(NS(=O)(=O)CCc2ccccc2)cc1 [Compound 17b, 4-(2-Phenylethylsulfonamido)benzoic acid]			IC50 [1, 5]: 63 ± 12.9 µM
CCCCCCCCCS(=O)(=O)Nc1ccc(CP(=O)(O)O)cc1 [Compound 13f, 4-(Nonylsulfonamido)benzylphosphonic acid]			IC50 [1, 6]: 30.7 µM
CCCCCCCCS(=O)(=O)Nc1ccc(-c2ccc(F)cc2)cc1C(=O)O		20.6 µM	
CCCCCCCCS(=O)(=O)Nc1ccc(-c2cccnc2)cc1C(=O)O	FAS (IC50) Not Tested CPT I Stim Not Tested FAO SC 150 Neg SA/MH (MIC) ug/ml	76.3 µM	
CCCCCCCCS(=O)(=O)Nc1cc(-c2ccccc2Cl)ccc1C(=O)O	FAS (IC50) Not Tested CPT I Stim Not Tested FAO SC 150 Neg SA/MH (MIC) ug/ml	23.1 µM	
CCCCCCCCS(=O)(=O)Nc1cc(-c2ccc(Cl)cc2Cl)ccc1C(=O)O		18.3 µM	
CCCCCCCCS(=O)(=O)Nc1cc(-c2ccc(C#N)cc2)ccc1C(=O)O	FAS (IC50) Not Tested CPT I Stim Not Tested FAO SC 150 Neg SA/MH (MIC) ug/ml	20 µM	
CCCCCCCCS(=O)(=O)Nc1cc(-c2ccc(F)cc2)ccc1C(=O)O		25.3 µM	
CCCCCCCCS(=O)(=O)Nc1ccc(-c2ccccc2O)cc1C(=O)O	FAS (IC50) Not Tested CPT I Stim Not Tested FAO SC 150 Neg SA/MH (MIC) ug/ml	63.4 µM	
CCCCCS(=O)(=O)Nc1ccccc1CP(=O)(O)O [Compound 13a, 2-(Pentylsulfonamido)benzylphosphonic acid]			IC50 [1, 6]: 41.4 ± 8.4 µM
CCCCCCCCS(=O)(=O)Nc1cc(-c2cccc(F)c2)ccc1C(=O)O		28.7 µM	
CCCCCCCCS(=O)(=O)Nc1ccc(-c2cccc(Cl)c2)cc1C(=O)O	FAS (IC50) Not Tested CPT I Stim Not Tested FAO SC 150 Neg SA/MH (MIC) ug/ml	13 µM	
CCCCCCCCS(=O)(=O)Nc1ccccc1P(=O)(O)O [Compound 21c, 2-(Octylsulfonamido)phenylphosphonic acid]			IC50 [1, 3]: 25.7 ± 2.5 µM
CCCCCCCCS(=O)(=O)Nc1cc(-c2cccs2)ccc1C(=O)O	FAS (IC50) Not Tested CPT I Stim Not Tested FAO SC 150 Neg SA/MH (MIC) ug/ml	22.5 µM	
CCCCCCCCS(=O)(=O)Nc1ccc(-c2ccc(Cl)cc2Cl)cc1C(=O)O	FAS (IC50) Not Tested CPT I Stim Not Tested FAO SC 150 Neg SA/MH (MIC) ug/ml	17.2 µM	
CCCCCCCCS(=O)(=O)Nc1cc(-c2ccc(-c3ccccc3)cc2)ccc1C(=O)O	FAS (IC50) Not Tested CPT I Stim Not Tested FAO SC 150 Neg SA/MH (MIC) ug/ml	17.4 µM	
CCCCCCCCS(=O)(=O)Nc1cc(-c2ccccc2O)ccc1C(=O)O		62.6 µM	
CCCCCCCCS(=O)(=O)Nc1ccc(-c2cccc(F)c2)cc1C(=O)O	FAS (IC50) Not Tested CPT I Stim Not Tested FAO SC 150 Neg SA/MH (MIC) ug/ml	52 µM	
CCCCCCCCS(=O)(=O)Nc1ccc(-c2ccc(C(C)=O)cc2)cc1C(=O)O	FAS (IC50) Not Tested CPT I Stim Not Tested FAO SC 150 Neg SA/MH (MIC) ug/ml	702 µM	
CCCCCCCCS(=O)(=O)Nc1ccc(-c2ccc(-c3ccccc3)cc2)cc1C(=O)O	FAS (IC50) Not Tested CPT I Stim Not Tested FAO SC 150 Neg SA/MH (MIC) ug/ml	65.7 µM	
CCCCCCCCS(=O)(=O)Nc1ccc(-c2ccc(C#N)cc2)cc1C(=O)O	FAS (IC50) Not Tested CPT I Stim Not Tested FAO SC 150 Neg SA/MH (MIC) ug/ml	24.6 µM	
O=C(O)c1ccccc1NS(=O)(=O)Cc1ccccc1 [Compound 17e, 2-(Phenylmethylsulfonamido)benzoic acid]			IC50 [1, 5]: 40.7 ± 1.2 µM

SMILES	FAO SC 150 [2]	IC50 [1, 4]	also measured
CCCCCCCCS(=O)(=O)Nc1ccc(-c2ccc(OC)cc2)cc1C(=O)O	FAS (IC50) Not Tested CPT I Stim Not Tested FAO SC 150 Neg SA/MH (MIC) ug/ml	19.1 µM	
O=C(O)c1ccccc1NS(=O)(=O)CCc1ccccc1 [Compound 17f, 2-(2-Phenylethylsulfonamido)benzoic acid]			IC50 [1, 5]: 46.4 ± 4.5 µM
CCCCCCCCS(=O)(=O)Nc1ccc(-c2ccccc2-c2ccccc2)cc1C(=O)O	FAS (IC50) Not Tested CPT I Stim Not Tested FAO SC 150 Neg SA/MH (MIC) ug/ml	13.5 µM	
CCCCCCCCS(=O)(=O)Nc1ccc(-c2cc(Cl)cc(Cl)c2)cc1C(=O)O		19 µM	
CCCCCCCCS(=O)(=O)Nc1cc(-c2cccc(Cl)c2)ccc1C(=O)O	FAS (IC50) Not Tested CPT I Stim Not Tested FAO SC 150 Neg SA/MH (MIC) ug/ml	16 µM	
CCCCCCCCS(=O)(=O)Nc1cc(-c2ccccc2-c2ccccc2)ccc1C(=O)O	FAS (IC50) Not Tested CPT I Stim Not Tested FAO SC 150 Neg SA/MH (MIC) ug/ml	18 µM	
O=C(O)c1cccc(NS(=O)(=O)Cc2ccccc2)c1 [Compound 17c, 3-(Phenylmethylsulfonamido)benzoic acid]			IC50 [1, 5]: 52.1 ± 9 µM
CCCCCCCCS(=O)(=O)Nc1cccc(P(=O)(O)O)c1 [Compound 21b, 3-(Octylsulfonamido)phenylphosphonic acid]			IC50 [1, 3]: 25.3 ± 5.4 µM
O=C(O)c1cccc(NS(=O)(=O)c2ccc(Cl)cc2)c1 [Compound 15f, 3-(4-Chlorophenylsulfonamido)benzoic acid]			IC50 [1, 5]: 23.6 ± 1.2 µM
CCCCCCCCS(=O)(=O)Nc1ccc(-c2ccccc2F)cc1C(=O)O	FAS (IC50) Not Tested CPT I Stim Not Tested FAO SC 150 Neg SA/MH (MIC) ug/ml	31.2 µM	
CCCCCCCCS(=O)(=O)Nc1cc(-c2cccc(O)c2)ccc1C(=O)O		55.5 µM	
O=C(O)c1ccc(NS(=O)(=O)Cc2ccccc2)cc1 [Compound 17a, 4-(Phenylmethylsulfonamido)benzoic acid]			IC50 [1, 5]: 64.5 ± 11.6 µM
CCCCCCCCS(=O)(=O)Nc1ccc(P(=O)(O)O)cc1 [Compound 21a, 4-(Octylsulfonamido)phenylphosphonic acid]			IC50 [1, 3]: 33.3 ± 3.8 µM
CCCCCCCCS(=O)(=O)Nc1ccc(-c2cccc(O)c2)cc1C(=O)O		57.7 µM	
CCCCCCCCS(=O)(=O)Nc1cc(-c2ccc(Cl)cc2)ccc1C(=O)O	FAS (IC50) Not Tested CPT I Stim Not Tested FAO SC 150 Neg SA/MH (MIC) ug/ml	18.4 µM	
O=C(O)c1ccc(NS(=O)(=O)c2ccccc2)cc1 [Compound 15b, 4-(Phenylsulfonamido)benzoic acid]			IC50 [1, 5]: 41.9 ± 5.3 µM
CCCCCCCCS(=O)(=O)Nc1ccc(-c2ccc(O)cc2)cc1C(=O)O		60.9 µM	
CS(=O)(=O)Nc1ccccc1C(=O)O [Compound 24a, 2-(Methylsulfonamido)benzoic acid]			IC50 [1, 3]: 28.6 ± 4.6 µM
O=C(O)c1cccc(NS(=O)(=O)CCc2ccccc2)c1 [Compound 17d, 3-(2-Phenylethylsulfonamido)benzoic acid]			IC50 [1, 5]: 50.3 ± 4.4 µM
CCCCCCCCS(=O)(=O)Nc1cc(-c2cc(Cl)cc(Cl)c2)ccc1C(=O)O		19.2 µM	
CCCCCCCCS(=O)(=O)Nc1cc(-c2ccccc2F)ccc1C(=O)O		55.7 µM	
O=C(O)c1cccc(NS(=O)(=O)c2ccccc2)c1 [Compound 15e, 3-(Phenylsulfonamido)benzoic acid]			IC50 [1, 5]: 38.3 ± 7.6 µM
CCCCCCCCCS(=O)(=O)Nc1ccc(C(=O)O)cc1 [Compound 15a, 4-(Nonylsulfonamido)benzoic acid]			IC50 [1, 5]: 29.1 ± 4.3 µM
CCCCCCCCCS(=O)(=O)Nc1ccccc1CP(=O)(O)O [Compound 13b, 2-(Nonylsulfonamido)benzylphosphonic acid]			IC50 [1, 6]: 30.6 µM
O=C(O)c1ccccc1NS(=O)(=O)c1ccc(Cl)cc1 [Compound 15i, 2-(4-Chlorophenylsulfonamido)benzoic acid]			IC50 [1, 5]: 33.5 ± 2.5 µM
